The values that follow come from patent US7498348B2, “1 H-imidazole derivatives as cannabinoid receptor modulators” (Solvay Pharmaceuticals, Inc., priority 2003, dated 2009).

Each structure is given as a SMILES string. Values after ≈ are worked out from the molar mass of the structure shown. Like-named read-outs stand apart in the source and are kept apart here.

As a reminder, the melting point is the temperature of the solid-liquid transition.

Data set [1] can be described thus: Determination of aqueous solubility (precipitate formation after 100-fold dilution of DMSO stock solutions). The class given is physicochemical. The conditions noted are these: kinetic from dmso stock. How it is done:
Determination of Aqueous Solubility
The compounds are dissolved in DMSO to give 10 mg/ml stock solutions. These stock solutions are divided over several plates. Several diluted concentrations are made with DMSO to 5, 2.5, 1.25, 0.625 and 0.3125 mg/ml, respectively. The stock solution and each derived concentration from this stock solution is taken and diluted 100 fold with water or with water containing a buffer. In every case this gives an aqueous solution which contains 1% DMSO (v/v) and 100, 50, 25, 12.5 and 6.25 and 3.125 μg compound/ml, respectively. The formation of a precipitate is determined in each plate. The measurements were performed at pH=7, applying a HEPES buffer and at pH=2, applying hydrochloric acid. Aqueous solubility is expressed in μg/ml in the table below.
Aqueous solubilities of two of the compounds of general formula (I), the compounds 1 and 4, and the compound 1-(4-chlorophenyl)-2-(2,4-dichloro-phenyl)-N-cyclohexyl-1H-imidazole-4-carboxamide (compound 3 from WO 03/063781) were determined according to the procedure described above.

Data set [2] has as its target T1, human cannabinoid CB1 receptor (Homo sapiens, UniProt P21554).
T1 construct: expressed in transfected cells; host or cells: Chinese hamster ovary (CHO) cells, stably transfected; membrane preparations
The data set can be described thus: In vitro affinity for cannabinoid-CB1 receptors ([3H]CP-55,940 radioligand, CHO cell membrane preparations). The conditions noted are these: CHO cell membranes, stably transfected human CB1, [3H]CP-55,940; read-out: Human cannabinoid-CB1 receptor In vitro affinity - pKi value (converted). The class given is binding. How it is done: In Vitro Affinity for Cannabinoid-CB1 Receptors
The affinity of the compounds of the invention for cannabinoid CB1 receptors can be determined using membrane preparations of Chinese hamster ovary (CHO) cells in which the human cannabinoid CB1 receptor is stably transfected in conjunction with [^3H]CP-55,940 as radioligand. After incubation of a freshly prepared cell membrane preparation with the [^3H]-ligand, with or without addition of compounds of the invention, separation of bound and free ligand is performed by filtration over glassfiber filters. Radioactivity on the filter is measured by liquid scintillation counting.
Pharmacological test results of a subset of the compounds of the invention, obtained with the assay described above, are given in table 2 below: […]

T1 sequence (P21554 whole entry): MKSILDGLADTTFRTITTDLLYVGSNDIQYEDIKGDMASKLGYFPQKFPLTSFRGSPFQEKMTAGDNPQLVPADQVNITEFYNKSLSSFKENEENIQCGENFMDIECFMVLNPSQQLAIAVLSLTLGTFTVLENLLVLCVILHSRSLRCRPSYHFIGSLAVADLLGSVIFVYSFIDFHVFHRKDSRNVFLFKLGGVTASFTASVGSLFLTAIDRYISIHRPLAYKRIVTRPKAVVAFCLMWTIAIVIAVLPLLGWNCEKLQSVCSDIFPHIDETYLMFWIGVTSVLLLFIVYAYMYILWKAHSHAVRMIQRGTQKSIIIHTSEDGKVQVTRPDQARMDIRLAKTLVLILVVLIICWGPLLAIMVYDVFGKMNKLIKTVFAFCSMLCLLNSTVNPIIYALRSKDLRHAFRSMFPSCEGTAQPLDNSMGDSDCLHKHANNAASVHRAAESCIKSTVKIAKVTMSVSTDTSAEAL

Consider `O=C(NC1CCCCC1)c1cn(-c2ccc(Cl)cc2)c(-c2ccc(Cl)cc2Cl)n1` [1-(4-chlorophenyl)-2-(2,4-dichloro-phenyl)-N-cyclohexyl-1H-imidazole-4-carboxamide, reference compound], for which the solubility in data set [1] (pH 2, simulated gastric fluid) is 25 µg/mL (≈ 55.7 µM); in data set [1] (pH 7, aqueous buffer) it was 25 µg/mL (≈ 55.7 µM).
For `O=C(NC1CCCCC1)c1nc(-c2ccc(Cl)cc2Cl)n(-c2ccc(Cl)cc2)c1CN1CCCC1` [Compound 1, N-cyclohexyl-1-(4-chlorophenyl)-2-(2,4-dichlorophenyl)-5-(pyrrolidin-1-ylmethyl)-1H-imidazole-4-carboxamide], the melting point fell in the range of 155 to 157 °C. For the same compound, the Ki in data set [2] is 7.94 nM. This compound also displayed a solubility in data set [1] (pH 2, simulated gastric fluid) of more than 100 µg/mL. Moreover, in data set [1] (pH 7, aqueous buffer), the solubility amounted to 50 µg/mL (≈ 94 µM).
For `CCN(C)Cc1c(C(=O)NC2CCCCC2)nc(-c2ccc(Cl)cc2Cl)n1-c1ccc(Cl)cc1` [Compound 2, N-cyclohexyl-1-(4-chlorophenyl)-2-(2,4-dichlorophenyl)-5-(N-ethyl,N-methylaminomethyl)-1H-imidazole-4-carboxamide], the melting point lay within 135 to 136 °C. Besides, the Ki in data set [2] was 6.31 nM.
For `CN(C)Cc1c(C(=O)NN2CCCCC2)nc(-c2ccc(Cl)cc2Cl)n1-c1ccc(Cl)cc1` [Compound 3, N-(piperidin-1-yl)-1-(4-chlorophenyl)-2-(2,4-dichlorophenyl)-5-(N,N-dimethylaminomethyl)-1H-imidazole-4-carboxamide], the melting point is 163 to 166 °C. In data set [2], the Ki was 100 nM.
With `CN(C)Cc1c(C(=O)NC2CCCCC2)nc(-c2ccc(Cl)cc2Cl)n1-c1ccc(Cl)cc1` [Compound 4, N-cyclohexyl-1-(4-chlorophenyl)-2-(2,4-dichlorophenyl)-5-(N,N-dimethylaminomethyl)-1H-imidazole-4-carboxamide], the Ki in data set [2] is 31.6 nM. Also, the solubility is 50 µg/mL (≈ 98.8 µM) in data set [1] (aqueous buffer, pH = 7, HEPES buffer, 1% DMSO (v/v), read-out: Aqueous solubility in μg/ml at pH = 7) and more than 100 µg/mL in data set [1] (simulated gastric fluid, pH = 2, hydrochloric acid, 1% DMSO (v/v), read-out: Aqueous solubility in μg/ml at pH = 2).
Take `CCN(C)Cc1c(C(=O)NN2CCCCC2)nc(-c2ccc(Cl)cc2Cl)n1-c1ccc(Cl)cc1` [Compound 6, N-(piperidin-1-yl)-1-(4-chlorophenyl)-2-(2,4-dichlorophenyl)-5-(N-ethyl, N-methylaminomethyl)-1H-imidazole-4-carboxamide]: in data set [2], the Ki was 126 nM.
